Assay results taken from patent US12187713B2, “Immunomodulators, compositions and methods thereof” (Betta Pharmaceuticals Co., Ltd, priority 2019, dated 2025).

Columns and labels:
PD-1/PD-L1 = PD-1/PD-L1 (Homo sapiens (Human), UniProt Q9NZQ7); assay: PD-1/PD-L1 Binding Assay (Alphascreen)
Method in brief: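 PD-1/PD-L1 binding detected by anti-6×His acceptor and streptavidin donor beads after 120 min in the dark at 25 °C. Beforehand, the two proteins were incubated 15 min at 25 °C with inhibitor at 0.015–300 nM (1% DMSO). IC50 comes from a log concentration–response curve.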

[1] = Pharmacokinetic Assay, single oral dose 100 mg/kg (Table 11); assay type: in vivo; settings: mouse, C57 female mice, oral (intragastric), plasma
Description: Adult C57 female mice were received to single-dose of the test compounds with […], 10% Kolliphor^@HS 15 and 80% saline as excipients, the mice (n=9) were giving oral administration (intragastric administration) with the compounds at a dose of 100 mg/kg. Time of blood collection: 15 min, 30 min, 1 h, 2 h, 4 h, 7 h, 24 h. Approximately 0.1 mL of whole blood was collected from retro-orbital venous plexus of 3 mice at each time point, and placed into tubes that contained K2-EDTA as an anticoagulant. The whole blood was centrifuged at 4° C. and 4000 rpm for 10 min. The plasma was transferred into centrifuge tubes, and stored at −20° C. until being analyzed. Concentrations of test compounds in the plasma samples were analyzed with liquid chromatography-tandem mass spectrometry (LC-MS/MS). Plasma concentration-time data of individual animals was analyzed using Microsoft Excel 2010. Non-compartmental model was introduced in concentration analysis. The pharmacokinetic parameters of the test compounds were calculated using WinNonlin (version 4.1; Pharsight) software.

[2] = Pharmacokinetic Assay, single oral dose 5 mg/kg (Table 12); assay type: in vivo; settings: mouse, plasma concentration, C57 female mice, single oral dose 5 mg/kg
Method in brief: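 Adult female C57 mice (n=3) got one intragastric dose of 5 mg/kg in 15% DMSO, 10% Kolliphor HS 15, 75% saline. Retro-orbital blood was taken at 30 min, 2 h and 4 h into K2-EDTA. Plasma levels were measured by LC-MS/MS.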

PD-1/PD-L1, sequence (Q9NZQ7 19-238): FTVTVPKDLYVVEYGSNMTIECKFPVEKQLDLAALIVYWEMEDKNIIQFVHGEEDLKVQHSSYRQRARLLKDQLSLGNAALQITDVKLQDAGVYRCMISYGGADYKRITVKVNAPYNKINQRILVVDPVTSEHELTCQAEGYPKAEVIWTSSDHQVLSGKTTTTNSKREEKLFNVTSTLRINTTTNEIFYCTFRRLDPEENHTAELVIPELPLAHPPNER

Row | IC50 (PD-1/PD-L1; numeric values) | AUC [1] | Cmax [1] | Tmax [1] | half-life [1] | concentration at 0.5 h [2] | concentration at 2 h [2] | concentration at 4 h [2] | IC50 (PD-1/PD-L1; range symbols) | Compound
1 | 0.2 nM | 271 ng·h/mL | 218 ng/mL | 30 min | 198 min |  |  |  |  | Cc1c(-c2nc3cc(CN4CCC[C@H]4C(=O)O)c(OC(F)F)cc3o2)cccc1-c1cccc(-c2nc3cc(CN4CCC[C@H]4C(=O)O)c(OC(F)F)cc3o2)c1C [Example 2, (2′S)-(((2,2′-dimethyl-[1,1′-biphenyl]-3,3′-diyl)bis(6-(difluoromethoxy)benzo[d]oxazole-2,5-diyl))bis(methylene))di-L-proline]
2 | 89 nM | 461 ng·h/mL | 374 ng/mL | 60 min | 23.4 min |  |  |  |  | COC(=O)[C@@H]1CCCN1Cc1cc2nc(-c3cccc(-c4cccc(-c5nc6cc(CN7CCC[C@H]7C(=O)O)c(OC(F)F)cc6o5)c4C)c3C)oc2cc1OC(F)F [Example 3, ((6-(difluoromethoxy)-2-(3′-(6-(difluoromethoxy)-5-(((S)-2-(methoxycarbonyl)pyrrolidin-1-yl)methyl)benzo[d]oxazol-2-yl)-2,2′-dimethyl-[1,1′-biphenyl]-3-yl)benzo[d]oxazol-5-yl)methyl)-L-proline]
3 | 1.8 nM |  |  |  |  | 87.2 ng/mL | 261 ng/mL | 285 ng/mL |  | COc1nc(-c2cccc(-c3cccc(-c4nc5cc(CN6CCC[C@H]6C(=O)O)c(OC(F)F)cc5o4)c3C)c2C)ccc1CN1CC[C@H](C)C1 [Example 246, ((6-(difluoromethoxy)-2-(3′-(6-methoxy-5-(((S)-3-methylpyrrolidin-1-yl)methyl)pyridin-2-yl)-2,2′-dimethyl-[1,1′-biphenyl]-3-yl)benzo[d]oxazol-5-yl)methyl)-L-proline]
4 |  |  |  |  |  | 89 ng/mL | 271 ng/mL | 369 ng/mL | 5 to 50 nM | Cc1c(-c2ccc(CN3CC[C@@H](c4ccccc4)C3)c(F)c2)cccc1-c1cccc(-c2nc3cc(CN4CCC[C@H]4C(=O)O)c(OC(F)F)cc3o2)c1C [Example 248, ((6-(difluoromethoxy)-2-(3″-fluoro-2,2′-dimethyl-4″-(((S)-3-phenylpyrrolidin-1-yl)methyl)-[1,1′:3′,1″-terphenyl]-3-yl)benzo[d]oxazol-5-yl)methyl)proline]
5 |  |  |  |  |  | 694 ng/mL | 2870 ng/mL | 4150 ng/mL | 0.1 to 5 nM | Cc1c(-c2ccc(CN3CC[C@H](COCc4ccccc4)C3)c(F)c2)cccc1-c1cccc(-c2nc3cc(CN4CCC[C@H]4C(=O)O)c(OC(F)F)cc3o2)c1C [Example 252, ((2-(4″-(((S)-3-((benzyloxy)methyl)pyrrolidin-1-yl)methyl)-3″-fluoro-2,2′-dimethyl-[1,1′:3′,1″- terphenyl]-3-yl)-6-(difluoromethoxy)benzo[d]oxazol-5-yl)methyl)proline]
6 | 4.7 nM |  |  |  |  | 42.3 ng/mL | 199 ng/mL | 181 ng/mL |  | Cc1c(-c2nc3cc(CN4CCC[C@H]4C(=O)O)c(OC(F)F)cc3o2)cccc1-c1cccc(-c2ccc(CN3CCCC3)cc2F)c1C [Example 253, ((6-(difluoromethoxy)-2-(2″-fluoro-2,2′-dimethyl-4″-(pyrrolidin-1-ylmethyl)-[1,1′:3′,1″- terphenyl]-3-yl)benzo[d]oxazol-5-yl)methyl)-L-proline]
7 | 1.9 nM |  |  |  |  | 66.1 ng/mL | 198 ng/mL | 141 ng/mL |  | COc1nc(-c2cccc(-c3cccc(-c4nc5cc(CN6CCC[C@H]6C(=O)O)c(OC(F)F)cc5o4)c3C)c2C)ccc1CN1CC[C@@H](C)C1 [Example 272, ((6-(difluoromethoxy)-2-(3′-(6-methoxy-5-(((R)-3-methylpyrrolidin-1-yl)methyl)pyridin-2-yl)-2,2′-dimethyl-[1,1′-biphenyl]-3-yl)benzo[d]oxazol-5-yl)methyl)-L-proline]
8 |  |  |  |  |  | 131 ng/mL | 291 ng/mL | 238 ng/mL | 0.1 to 5 nM | COc1nc(-c2cccc(-c3cccc(-c4nc5cc(CN6CCC[C@H]6C(=O)O)c(OC(F)F)cc5o4)c3C)c2C)ccc1CNCC1CCC(=O)N1 (stereo partly drawn) [Example 276, ((6-(difluoromethoxy)-2-(3′-(6-methoxy-5-((((5-oxopyrrolidin-2-yl)methyl)amino)methyl)pyridin-2-yl)-2,2′-dimethyl-[1,1′-biphenyl]-3-yl)benzo[d]oxazol-5-yl)methyl)-L-proline]
9 | 5.7 nM |  |  |  |  | 33.6 ng/mL | 171 ng/mL | 113 ng/mL |  | Cc1c(-c2nc3cc(CN4CCC[C@H]4C(=O)O)c(OC(F)F)cc3o2)cccc1-c1cccc(-c2ccc(CN3CCCC3)s2)c1C [Example 280, ((6-(difluoromethoxy)-2-(2,2′-dimethyl-3′-(5-(pyrrolidin-1-ylmethyl)thiophen-2-yl)-[1,1′-biphenyl]-3-yl)benzo[d]oxazol-5-yl)methyl)-L-proline]
10 |  |  |  |  |  | 522 ng/mL | 1170 ng/mL | 965 ng/mL | 5 to 50 nM | Cc1c(-c2cnc(N3CCCC3)nc2)cccc1-c1cccc(-c2nc3cc(CN4CCC[C@H]4C(=O)O)c(OC(F)F)cc3o2)c1C [Example 283, ((6-(difluoromethoxy)-2-(2,2′-dimethyl-3′-(2-(pyrrolidin-1-yl)pyrimidin-5-yl)-[1,1′-biphenyl]-3-yl)benzo[d]oxazol-5-yl)methyl)-L-proline]
11 |  |  |  |  |  | 39.1 ng/mL | 80 ng/mL | 41.8 ng/mL | 0.1 to 5 nM | COc1nc(-c2cccc(-c3cccc(-c4nc5cc(CN6CCC[C@H]6C(=O)O)c(OC(F)F)cc5o4)c3C)c2C)cnc1CN1CCCC1 [Example 285, ((6-(difluoromethoxy)-2-(3′-(6-methoxy-5-(pyrrolidin-1-ylmethyl)pyrazin-2-yl)-2,2′-dimethyl-[1,1′-biphenyl]-3-yl)benzo[d]oxazol-5-yl)methyl)-L-proline]
12 |  |  |  |  |  | 20.5 ng/mL | 73.8 ng/mL | 52.2 ng/mL | 0.1 to 5 nM | COc1nc(-c2cccc(-c3cccc(-c4nc5cc(CN6CCC[C@H]6C(=O)O)c(OC(F)F)cc5o4)c3C)c2C)cnc1CN1CC[C@@H](C)C1 [Example 286, ((6-(difluoromethoxy)-2-(3′-(6-methoxy-5-(((R)-3-methylpyrrolidin-1-yl)methyl)pyrazin-2-yl)-2,2′-dimethyl-[1,1′-biphenyl]-3-yl)benzo[d]oxazol-5-yl)methyl)-L-proline]
13 | 1.5 nM |  |  |  |  | 8.36 ng/mL | 25.4 ng/mL | 9.68 ng/mL |  | Cc1c(-c2ccc3c(c2)CCNC3)cccc1-c1cccc(-c2nc3cc(CN4CCC[C@H]4C(=O)O)c(OC(F)F)cc3o2)c1C [Example 288, ((6-(difluoromethoxy)-2-(2,2′-dimethyl-3′-(1,2,3,4-tetrahydroisoquinolin-6-yl)-[1,1′-biphenyl]-3-yl)benzo[d]oxazol-5-yl)methyl)-L-proline]
14 | 11 nM |  |  |  |  | 6.68 ng/mL | 10.8 ng/mL | 3.57 ng/mL |  | Cc1c(-c2ccc3[nH]c(N)nc3c2)cccc1-c1cccc(-c2nc3cc(CN4CCC[C@H]4C(=O)O)c(OC(F)F)cc3o2)c1C [Example 293, ((2-(3′-(2-amino-1H-benzo[d]imidazol-5-yl)-2,2′-dimethyl-[1,1′-biphenyl]-3-yl)-6-(difluoromethoxy)benzo[d]oxazol-5-yl)methyl)-L-proline]
15 |  |  |  |  |  | 80.4 ng/mL | 193 ng/mL | 186 ng/mL | 0.1 to 5 nM | COc1nc(-c2cccc(-c3cccc(-c4nc5cc(CN6CCC[C@H]6C(=O)O)c(OC(F)F)cc5o4)c3C)c2C)ccc1CN1CCC(C)(C)C1 [Example 294, ((6-(difluoromethoxy)-2-(3′-(5-((3,3-dimethylpyrrolidin-1-yl)methyl)-6-methoxypyridin-2-yl)-2,2′-dimethyl-[1,1′-biphenyl]-3-yl)benzo[d]oxazol-5-yl)methyl)-L-proline]
16 |  |  |  |  |  | 27.9 ng/mL | 212 ng/mL | 89.2 ng/mL | > 50 nM | Cc1c(-c2nc3cc(CN4CCC[C@H]4C(=O)O)c(OC(F)F)cc3o2)cccc1-c1cccc(-c2nc3cc(CN4CCCC4)c(F)c(F)c3n2CC(F)(F)F)c1C [Example 299, ((2-(3′-(6,7-difluoro-5-(pyrrolidin-1-ylmethyl)-1-(2,2,2-trifluoroethyl)-1H-benzo[d]imidazol-2-yl)-2,2′-dimethyl-[1,1′-biphenyl]-3-yl)-6-(difluoromethoxy)benzo[d]oxazol-5-yl)methyl)-L-proline]
17 | 27 nM |  |  |  |  | 131 ng/mL | 150 ng/mL | 74.2 ng/mL |  | Cc1nc(-c2cccc(-c3cccc(-c4nc5cc(CN6CCC[C@H]6C(=O)O)c(OC(F)F)cc5o4)c3C)c2C)oc1CN1CCCC1 [Example 304, ((6-(difluoromethoxy)-2-(2,2′-dimethyl-3′-(4-methyl-5-(pyrrolidin-1-ylmethyl)oxazol-2-yl)-[1,1′-biphenyl]-3-yl)benzo[d]oxazol-5-yl)methyl)-L-proline]
